Consider eleven cell lines from the supplement of paper PMC10307832.

What all share (experiment): relative viability (nuclei count vs DMSO), 5 days (fraction); higher = more cells survive
Compound in test [1]: C1=CC(=CC=C1NC(=S)NNC2=C(C=C(C=C2[N+](=O)[O-])C(F)(F)F)[N+](=O)[O-])F [Kobe2602] + C[C@]1(O)C[C@@H](c2nc(-c3ccc4ccc(-c5ccccc5)nc4c3)c3c(N)nccn32)C1 [Linsitinib] (partner 1 µM)
The method in brief:
(§1)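 Lung cancer cell lines were seeded in 1536-well plates and dosed by pin tool the next day, with either a single drug or a fixed anchor-drug dose combined with five library-drug doses (not always all listed) spaced in √10 steps. Five days later, one step fixed the cells and stained their nuclei (final 0.05% Triton X-100, 1% formaldehyde, 1 ug/ml Hoechst), and nuclei were counted on 4× images. Relative viability is the nuclei count in treated wells divided by the count in vehicle wells, and each value is the median of duplicate plates.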

Compound in test [2]: COc1cc2nccc(Oc3ccc(NC(=O)C4(C(=O)Nc5ccc(F)cc5)CC4)cc3)c2cc1OC [Cabozantinib] + Nc1nc2[nH]cc(CCc3ccc(C(=O)N[C@@H](CCC(=O)O)C(=O)O)cc3)c2c(=O)[nH]1 [Pemetrexed] (partner 0.2 µM)
The method in brief: as §1

Compound in test [3]: O[C@@H](COc1cccc2ncccc12)CN1CCN([C@@H]2c3ccccc3[C@@H]3[C@H](c4ccccc42)C3(F)F)CC1 [Zosuquidar] + COc1cccc2cc(-c3nc([C@H]4CC[C@H](C(=O)O)CC4)n4ncnc(N)c34)[nH]c12 [OSI-027] (partner 0.5 µM)
The method in brief: as §1

Compound in test [4]: C1=CC(=CC=C1NC(=S)NNC2=C(C=C(C=C2[N+](=O)[O-])C(F)(F)F)[N+](=O)[O-])F [Kobe2602] + CC(C)C[C@H](NC(=O)[C@H](Cc1ccccc1)NC(=O)c1cnccn1)B(O)O [Bortezomib] (partner 0.002 µM)
The method in brief: as §1

For NCI-H1395, the relative viability in test [1] (first compound 0.2 µM) worked out at 0.992; in test [1] (first compound 0.6325 µM), 1; in test [1] (first compound 2 µM), 1.04; in test [1] (first compound 6.325 µM), 1.05; in test [1] (first compound 20 µM) it was 1.12; in test [2] (first compound 0.02 µM), 0.699. Also, the relative viability in test [2] (first compound 0.06325 µM) amounted to 1.03; in test [2] (first compound 0.2 µM) it was 0.924; in test [2] (first compound 0.6325 µM) it was 0.714; in test [2] (first compound 2 µM), 0.824; in test [3] (first compound 0.01 µM), 0.653; in test [3] (first compound 0.03162 µM) it was 0.578. The relative viability in test [3] (first compound 0.1 µM) worked out at 0.552; in test [3] (first compound 0.3162 µM) it was 0.797; in test [3] (first compound 1 µM) it was 0.677.
As to NCI-H1623, the relative viability worked out at 0.432 in test [3] (first compound 0.01 µM); 0.464 in test [3] (first compound 0.03162 µM); 0.421 in test [3] (first compound 0.1 µM); 0.441 in test [3] (first compound 0.3162 µM); 0.43 in test [3] (first compound 1 µM).
As for NCI-H1648, the relative viability in test [2] (first compound 0.02 µM) was 0.73; in test [2] (first compound 0.06325 µM) it was 0.908; in test [2] (first compound 0.6325 µM) it was 0.793; in test [2] (first compound 2 µM), 0.82; in test [3] (first compound 0.01 µM) it was 0.243; in test [3] (first compound 0.1 µM), 0.234. In addition, the values for the relative viability in test [3] (first compound 0.3162 µM) and in test [3] (first compound 1 µM) were 0.288 and 0.245, respectively.
Turning to NCI-H1650, the relative viability in test [4] (first compound 0.2 µM) was determined as 0.232; in test [4] (first compound 0.6325 µM), 0.192; in test [4] (first compound 2 µM), 0.207; in test [4] (first compound 6.325 µM), 0.192; in test [4] (first compound 20 µM), 0.207; in test [2] (first compound 0.02 µM), 0.441. Moreover, the relative viability came to 0.435 in test [2] (first compound 0.06325 µM); 0.337 in test [2] (first compound 0.2 µM); 0.355 in test [2] (first compound 0.6325 µM); 0.374 in test [2] (first compound 2 µM); 0.737 in test [3] (first compound 0.01 µM); 0.607 in test [3] (first compound 0.03162 µM). Also, the relative viability was determined as 0.601 in test [3] (first compound 0.1 µM), 0.759 in test [3] (first compound 0.3162 µM) and 0.669 in test [3] (first compound 1 µM).
In the case of NCI-H1703, the relative viability in test [4] (first compound 0.2 µM) came out at 0.371; in test [4] (first compound 0.6325 µM), 0.379; in test [4] (first compound 2 µM), 0.286; in test [4] (first compound 6.325 µM), 0.367; in test [4] (first compound 20 µM), 0.342; in test [1] (first compound 0.2 µM) it was 0.609. Besides, the relative viability in test [1] (first compound 0.6325 µM) turned out to be 0.99; in test [1] (first compound 2 µM), 0.499; in test [1] (first compound 6.325 µM), 0.749; in test [1] (first compound 20 µM), 0.377.
Consider NCI-H1793, for which the relative viability in test [1] (first compound 0.2 µM) came out at 0.856; in test [1] (first compound 0.6325 µM), 0.883; in test [1] (first compound 2 µM), 0.806; in test [1] (first compound 6.325 µM), 0.831; in test [1] (first compound 20 µM), 0.958; in test [2] (first compound 0.02 µM) it was 0.865. In addition, the relative viability in test [2] (first compound 0.06325 µM) turned out to be 0.917; in test [2] (first compound 0.6325 µM), 0.73; in test [2] (first compound 2 µM), 0.588; in test [3] (first compound 0.01 µM) it was 0.315; in test [3] (first compound 0.03162 µM), 0.389; in test [3] (first compound 0.3162 µM) it was 0.287. Also, the relative viability in test [3] (first compound 1 µM) was determined as 0.311.
Consider NCI-H1944, for which the relative viability turned out to be 1.22 in test [1] (first compound 0.2 µM); 1.26 in test [1] (first compound 0.6325 µM); 1.28 in test [1] (first compound 2 µM); 1.17 in test [1] (first compound 6.325 µM); 1.29 in test [1] (first compound 20 µM); 0.601 in test [2] (first compound 0.02 µM). For the same cell line, the relative viability in test [2] (first compound 0.06325 µM) was found to be 0.645; in test [2] (first compound 0.2 µM), 0.631; in test [2] (first compound 0.6325 µM), 0.637; in test [2] (first compound 2 µM), 0.696; in test [3] (first compound 0.01 µM), 0.381; in test [3] (first compound 0.03162 µM) it was 0.384. Also, the relative viability worked out at 0.328 in test [3] (first compound 0.1 µM), 0.479 in test [3] (first compound 0.3162 µM) and 0.412 in test [3] (first compound 1 µM).
With NCI-H2170, the relative viability in test [2] (first compound 0.02 µM) stood at 0.28; in test [2] (first compound 0.06325 µM), 0.264; in test [2] (first compound 0.2 µM) it was 0.247; in test [2] (first compound 0.6325 µM) it was 0.274; in test [2] (first compound 2 µM), 0.311; in test [3] (first compound 0.01 µM), 0.701. Moreover, the relative viability turned out to be 0.731 in test [3] (first compound 0.03162 µM), 0.641 in test [3] (first compound 0.1 µM), 0.743 in test [3] (first compound 0.3162 µM) and 0.713 in test [3] (first compound 1 µM).
As to NCI-H2342, the relative viability in test [2] (first compound 0.02 µM) worked out at 0.711; in test [2] (first compound 0.06325 µM), 0.828; in test [2] (first compound 0.2 µM), 0.83; in test [2] (first compound 0.6325 µM) it was 0.86; in test [2] (first compound 2 µM) it was 0.729; in test [3] (first compound 0.01 µM), 0.605. In addition, the relative viability is 0.597 in test [3] (first compound 0.03162 µM), 0.558 in test [3] (first compound 0.1 µM), 0.668 in test [3] (first compound 0.3162 µM) and 0.624 in test [3] (first compound 1 µM).
In the case of SK-MES-1, the relative viability in test [1] (first compound 0.2 µM) worked out at 1; in test [1] (first compound 0.6325 µM) it was 1.26; in test [1] (first compound 2 µM), 1.04; in test [1] (first compound 6.325 µM) it was 1.07; in test [1] (first compound 20 µM), 1.07; in test [2] (first compound 0.02 µM) it was 1.02. The relative viability in test [2] (first compound 0.06325 µM) is 1.01; in test [2] (first compound 0.2 µM), 1; in test [2] (first compound 0.6325 µM), 0.904; in test [2] (first compound 2 µM) it was 0.937; in test [3] (first compound 0.01 µM), 0.639; in test [3] (first compound 0.03162 µM), 0.665. The relative viability was determined as 0.549 in test [3] (first compound 0.1 µM), 0.638 in test [3] (first compound 0.3162 µM) and 0.652 in test [3] (first compound 1 µM).
For the cell line SW 900, the relative viability in test [2] (first compound 0.02 µM) was 0.47; in test [2] (first compound 0.06325 µM), 0.482; in test [2] (first compound 0.2 µM), 0.486; in test [2] (first compound 0.6325 µM), 0.448; in test [2] (first compound 2 µM), 0.448; in test [3] (first compound 0.01 µM), 0.676. Moreover, the relative viability in test [3] (first compound 0.03162 µM) stood at 0.507; in test [3] (first compound 0.1 µM), 0.493; in test [3] (first compound 0.3162 µM), 0.646; in test [3] (first compound 1 µM) it was 0.706.
